Experimental data as given in publication PMC8264259, “A Novel Ruthenium(II) Complex With Lapachol Induces G2/M Phase Arrest Through Aurora-B Kinase Down-Regulation and ROS-Mediated Apoptosis in Human Prostate Adenocarcinoma Cells” (Frontiers in Oncology, 2021).

Assays:
[1] = system: A549 (human lung carcinoma); test: Alamar blue cytotoxicity assay, A549; format: cell-based; settings: for IC50: A549, Alamar blue, 24-h incubation, mean ± S.E.M.
Text: (§1) Human lung carcinoma (A549, ATCC® CCL-185™), human hepatocellular carcinoma (HepG2, ATCC® HB-8065™), and human breast adenocarcinoma (MDA-MB-231, ATCC® HTB-26™) were obtained from American Type Cell Collection (ATCC). Human melanoma (A-375, BCRJ-0278), Human colorectal adenocarcinoma (Caco-2, BCRJ 0059), human prostate adenocarcinoma (DU-145, BCRJ-0078, and PC-3, BCRJ-0269), human mouth fibroblast (FGH, BCRJ-0089), and human prostate epithelial cells (PNT-2, BCRJ-0366) were obtained from Rio de Janeiro Cells Bank (BCRJ). The cells A549, A-375, Caco-2, DU-145, HepG2, MDA-MB-231, and FGH were cultured in Dulbecco’s Modified Eagle’s Medium (DMEM, Gibco-Invitrogen®), PC-3 and PNT-2 cells were grown in Roswell Park Memorial Institute Medium (RPMI-1640, Gibco-Invitrogen®). Both mediums were supplemented according to the needs of each lineage, as recommended by its cell banks with 2 mM L-glutamine (Gibco-Invitrogen®), 10% or 20% fetal bovine serum (Gibco-Invitrogen®), 1% antibiotic-antimycotic solution (5 mg/ml penicillin, 5 mg/ml streptomycin, and 10 mg/ml neomycin, Gibco-Invitrogen®), and 3.7 g/L of NaHCO3 (Sigma-Aldrich). All cell lines were cultured in flasks at 37°C in 5% CO2 and 96% of relative humidity according to the procedures proposed by ([31]), and a mycoplasma stain kit (Sigma-Aldrich) was used to confirm the use of cells devoid of contamination. The assays were conducted between the third and the seventh-cell passage with sub-cultures every 3 to 4 days to maintain exponential growth. The cell viability was checked using the trypan blue dye exclusion assay for all experiments where over 95% of the cells were viable at the beginning of the tests.
(§2) The in vitro antiproliferative activity was quantified using the Alamar blue® assay, according to the method reported by ([32]). Cells were seeded in 96-well plates for all experiments (1.5 × 10^4 cells/well). After 24 h, the complexes were dissolved in DMSO and added to each well and incubated for 24 h. Dilutions of the complexes were prepared to obtain concentrations ranging from 0.3 to 100 μM. […] DMSO (0.1% v/v) was used as the vehicle control. Following 24 h of incubation, 50 μl of Alamar blue® (resazurin at 0.01% w/v, Sigma-Aldrich) was added to each well, and the plates were incubated, at 37°C, in the dark. Fluorescence reading was performed in a Synergy H1 Fluorescence Spectrophotometer (BioTek®), using excitation and emission filters at wavelengths of 560 and 590 nm, respectively. The fluorescence intensity was measured in arbitrary fluorescence units (AFU) and the AFU of untreated cells (CTL) was considered 100%. The cytotoxic effects of the compounds were estimated in terms of cell proliferation inhibition (%) and expressed as half-maximal inhibitory concentration (IC50). The cell proliferation inhibition percentage of cells exposed to treatments was calculated following: % Inhibition = 100 − (AFU of treated well/AFU of control well) × 100). The IC50 values were calculated from the cell proliferation inhibition percentage by nonlinear regression method using CompusSyn® Software.

[2] = system: DU-145 MCTSs; test: 3D multicellular tumor spheroids (MCTSs) culture; format: cell-based, human; settings: for IC50: 3D spheroids, 24 h, Alamar blue, read-out: IC50 against the DU-145 MCTSs
Procedure: Multicellular tumor spheroids (MCTSs) were obtained according to the method reported by ([33]). Briefly, 200 μl of a solution of DU-145 cells (2.0 × 10^3 cells/well) were inserted in agarose-coated 96-well plates (1.5% w/v) and cultured in complete medium plus 3% Matrigel® (Corning). DU-145-MCTSs with stable structures had formed after five days. […] Negative control received the vehicle (DMSO 0.1% v/v) that was used for diluting the compounds tested. Finally, the MCTS proliferation inhibition (%) and IC50 were determined by Alamar blue® assay as described above. To investigate morphological changes other MCTSs were treated with 0.25, 0.5, 1.0, 1.5, and 2.0 μM of complex (2) and examined for 7 days. Spheroid integrity and diameter of MCTSs were analyzed by phase-contrast microscopy (Inverted Trinocular Microscope Opton TNB-O5T-PL) using AxioVision LE software (Carl Zeiss, Germany).

[3] = system: PNT-2 (human prostate epithelial cells); test: Alamar blue cytotoxicity assay, PNT-2 non-cancer cells; format: cell-based; settings: 24-h incubation, mean ± S.E.M.
Text: as §1, §2

[4] = system: Caco-2 (human colorectal adenocarcinoma); test: Alamar blue cytotoxicity assay, Caco-2; format: cell-based; settings: for IC50: Caco-2, Alamar blue, 24-h incubation, mean ± S.E.M.
Text: as §1, §2

[5] = system: calf thymus DNA (ct-DNA); test: DNA minor groove interaction assay with Hoechst 33258; format: binding; settings: Hoechst 2.7 µM, ct-DNA 125 µM, complex 0-125 µM, 37°C
Procedure: DNA minor groove interaction was assessed by examining the ability of the complexes to displace Hoechst 33258 (Thermo Fischer Scientific) from calf thymus DNA (ct-DNA) (Sigma-Aldrich). The ct-DNA solution was prepared by dilution of 2 mg of the ct-DNA in 1 ml of Tris-HCl buffer (4.5 mM Tris-HCl, 0.5 mM Tris-base, 50 mM NaCl, pH 7.4), and the concentration was determined by absorption spectrophotometric using the molar absorption coefficient 6600 mol^−1 dm^3 cm^−1 at 260 nm ([38]). Thus, the ct-DNA (125 µM) was incubated with Hoechst (2.7 µM), and the extinction of the fluorescence intensity was monitored by the addition of different concentrations (0–125 µM) of both complexes in Tris-HCl containing 10% of DMSO. Fluorescence emission spectra were recorded from […] to 500 nm after excitation wavelength of 343 nm, using an opaque 96-well plate, in a Synergy H1 Fluorescence Spectrophotometer (BioTek®), at 37°C.

## CC(C)=CCC1=C([O-])C(=O)c2ccccc2C1=O.F[P-](F)(F)(F)(F)F.[Ru+2].c1ccc(-c2ccccn2)nc1.c1ccc(P(CP(c2ccccc2)c2ccccc2)c2ccccc2)cc1 [complex (1), [Ru(Lap)(dppm)(bipy)]PF6]
[1]
  IC50: 3300 ± 400 nM
[1]; SI = IC50[FGH]/IC50[A549]
  Selectivity index (SI): 0.9
[1]; SI = IC50[PNT-2]/IC50[A549]
  Selectivity index (SI): 1.8
[2]
  IC50: 2400 nM
[3]
  IC50: 5900 ± 2100 nM
[4]
  IC50: 2000 ± 600 nM
[4]; SI = IC50[FGH]/IC50[Caco-2]
  Selectivity index (SI): 1.5
[4]; SI = IC50[PNT-2]/IC50[Caco-2]
  Selectivity index (SI): 2.9

## CC(C)=CCC1=C([O-])C(=O)c2ccccc2C1=O.F[P-](F)(F)(F)(F)F.[Ru+2].c1ccc(P(CP(c2ccccc2)c2ccccc2)c2ccccc2)cc1.c1cnc2c(c1)ccc1cccnc12 [complex (2), [Ru(Lap)(dppm)(phen)]PF6]
[1]
  IC50: 2600 ± 100 nM
[1]; SI = IC50[FGH]/IC50[A549]
  Selectivity index (SI): 1.0
[1]; SI = IC50[PNT-2]/IC50[A549]
  Selectivity index (SI): 2.6
[2]
  IC50: 1900 nM
[2]; DU-145 MCTSs treated with 0.25-2.0 μM, examined for 7 days
  total spheroid area over time: decrease in the total spheroid area
[2]; DU-145 MCTSs, IC50 ratio vs cisplatin
  more potent than cisplatin (fold): ≥ 32 fold
[3]
  IC50: 6800 ± 1500 nM
[4]
  IC50: 1200 ± 300 nM
[4]; SI = IC50[FGH]/IC50[Caco-2]
  Selectivity index (SI): 2.0
[4]; SI = IC50[PNT-2]/IC50[Caco-2]
  Selectivity index (SI): 5.7
[5]
  displacement of Hoechst 33258 from ct-DNA (fluorescence): decrease the fluorescence of the Hoechst-DNA system
